{
  "source": "patent US20090143423A1",
  "about": "“SOLID DISPERSION PRODUCT CONTAINING N-ARYL UREA-BASED COMPOUND” (ABBOTT GMBH & CO. KG, priority 2007, published 2009)",
  "key": {"in vivo": {"test": "in vivo", "conditions": "rat, po, 100 mg/kg", "description": "A study was conducted to evaluate effect of aging on the ABT-102 bioavailability obtained from suspensions of the spray dried material. Suspensions were prepared by stirring in water for 15 minutes at room temperature (5 mg/ml concentration). The suspensions were then stored refrigerated until dosing. Suspensions aged for 1, 4 and 7 days were compared to a suspension freshly prepared on the morning of dosing. Each of the aged suspension was evaluated in a group of three rats at a dose of 100 mg/kg (20 ml/kg). All four test formulations were evaluated in the same study. Plasma concentrations of parent drug were determined by HPLC-MS/MS."}, "[1]": {"test": "Plasma concentration following multiple oral dosing in rat", "assay_type": "in vivo, Sprague-Dawley rats", "conditions": "for AUC / Cmax / Tmax: mean; for half-life: harmonic mean", "description": "A study was conducted to explore the ABT-102 plasma concentrations following multiple oral dosing in rat. In this study, a 10, 30 or 100 mg/kg/day oral dose was administered once daily for eight consecutive days. The compound was prepared as a suspension of the spray dried material in water at concentrations appropriate for a 20 ml/kg/day dose volume in each treatment group. The study was conducted in Sprague-Dawley rats (3 male, 3 female per dose group). Animals were permitted free access to food and water throughout the study. Plasma concentrations of parent drug were determined on the first (Day 1) and last (Day 8) of dosing."}, "[2]": {"test": "Previously conducted human pharmacokinetics of ABT-102", "assay_type": "in vivo", "conditions": "lipid-liquid formulation", "from_the_text": "However, it is anticipated that the current spray dried formulation of the invention also achieves similar pharmacokinetic profile in humans."}, "[3]": {"conditions": "10 mg/kg/day oral, Day 1, aqueous suspension of spray-dried dispersion of Example 4 (part B)"}, "[4]": {"conditions": "10 mg/kg/day oral, Day 8, aqueous suspension of spray-dried dispersion of Example 4 (part B)"}, "[5]": {"conditions": "30 mg/kg/day oral, Day 1, aqueous suspension of spray-dried dispersion of Example 4 (part B)"}, "[6]": {"conditions": "30 mg/kg/day oral, Day 8, aqueous suspension of spray-dried dispersion of Example 4 (part B)"}, "[7]": {"conditions": "100 mg/kg/day oral, Day 1, aqueous suspension of spray-dried dispersion of Example 4 (part B)"}, "[8]": {"conditions": "100 mg/kg/day oral, Day 8, aqueous suspension of spray-dried dispersion of Example 4 (part B)"}, "[9]": {"conditions": "both sexes, Sprague-Dawley, plasma, po, 10 mg/kg/day, 10 mg/kg/day oral, Day 1, aqueous suspension of spray-dried dispersion of Example 4 (part B)"}, "[10]": {"conditions": "both sexes, Sprague-Dawley, plasma, po, 10 mg/kg/day, 10 mg/kg/day oral, Day 8, aqueous suspension of spray-dried dispersion of Example 4 (part B)"}, "[11]": {"conditions": "both sexes, Sprague-Dawley, plasma, po, 30 mg/kg/day, 30 mg/kg/day oral, Day 1, aqueous suspension of spray-dried dispersion of Example 4 (part B)"}, "[12]": {"conditions": "both sexes, Sprague-Dawley, plasma, po, 30 mg/kg/day, 30 mg/kg/day oral, Day 8, aqueous suspension of spray-dried dispersion of Example 4 (part B)"}, "[13]": {"conditions": "both sexes, Sprague-Dawley, plasma, po, 100 mg/kg/day, 100 mg/kg/day oral, Day 1, aqueous suspension of spray-dried dispersion of Example 4 (part B)"}, "[14]": {"conditions": "both sexes, Sprague-Dawley, plasma, po, 100 mg/kg/day, 100 mg/kg/day oral, Day 8, aqueous suspension of spray-dried dispersion of Example 4 (part B)"}},
  "data": [
    {"smiles": "CC(C)(C)c1ccc2c(c1)CCC2NC(=O)Nc1cccc2[nH]ncc12", "note": "(stereo in doubt) [ABT-102, 1-((R)-5-tert-butyl-indan-1-yl)-3-(1H-indazol-4-yl)-urea]", "values": [
      {"measurement": "AUC", "setting": "in vivo; AUC", "result": 12400, "unit": "ng·h/mL"},
      {"measurement": "Cmax", "setting": "in vivo; Cmax", "result": 1160, "unit": "ng/mL"},
      {"measurement": "Tmax", "setting": "in vivo; Tmax", "result": 4.3, "unit": "h"},
      {"measurement": "half-life", "setting": "in vivo; t1/2", "result": 264, "unit": "min"},
      {"measurement": "AUC/D", "setting": "[1]; [3]", "result": 0.918, "unit": "μg · hr/mL per mg/kg"},
      {"measurement": "Cmax/D", "setting": "[1]; [3]", "result": 0.073, "unit": "μg/mL per mg/kg"},
      {"measurement": "AUC", "setting": "[1]; 10 mg/kg/day oral, Day 1, aqueous suspension of spray-dried dispersion of Example 4 (part B), 10 mg/kg/day", "result": 9.18, "unit": "µg·h/mL"},
      {"measurement": "AUC/D", "setting": "[1]; [4]", "result": 0.725, "unit": "μg · hr/mL per mg/kg"},
      {"measurement": "Cmax/D", "setting": "[1]; [4]", "result": 0.060, "unit": "μg/mL per mg/kg"},
      {"measurement": "AUC", "setting": "[1]; 10 mg/kg/day oral, Day 8, aqueous suspension of spray-dried dispersion of Example 4 (part B), 10 mg/kg/day", "result": 7.25, "unit": "µg·h/mL"},
      {"measurement": "AUC/D", "setting": "[1]; [5]", "result": 0.741, "unit": "μg · hr/mL per mg/kg"},
      {"measurement": "Cmax/D", "setting": "[1]; [5]", "result": 0.046, "unit": "μg/mL per mg/kg"},
      {"measurement": "AUC", "setting": "[1]; 30 mg/kg/day oral, Day 1, aqueous suspension of spray-dried dispersion of Example 4 (part B), 30 mg/kg/day", "result": 22.22, "unit": "µg·h/mL"},
      {"measurement": "AUC/D", "setting": "[1]; [6]", "result": 0.498, "unit": "μg · hr/mL per mg/kg"},
      {"measurement": "Cmax/D", "setting": "[1]; [6]", "result": 0.044, "unit": "μg/mL per mg/kg"},
      {"measurement": "AUC", "setting": "[1]; 30 mg/kg/day oral, Day 8, aqueous suspension of spray-dried dispersion of Example 4 (part B), 30 mg/kg/day", "result": 14.95, "unit": "µg·h/mL"},
      {"measurement": "AUC/D", "setting": "[1]; [7]", "result": 0.326, "unit": "μg · hr/mL per mg/kg"},
      {"measurement": "Cmax/D", "setting": "[1]; [7]", "result": 0.021, "unit": "μg/mL per mg/kg"},
      {"measurement": "AUC", "setting": "[1]; 100 mg/kg/day oral, Day 1, aqueous suspension of spray-dried dispersion of Example 4 (part B), 100 mg/kg/day", "result": 32.61, "unit": "µg·h/mL"},
      {"measurement": "AUC/D", "setting": "[1]; [8]", "result": 0.362, "unit": "μg · hr/mL per mg/kg"},
      {"measurement": "Cmax/D", "setting": "[1]; [8]", "result": 0.026, "unit": "μg/mL per mg/kg"},
      {"measurement": "AUC", "setting": "[1]; 100 mg/kg/day oral, Day 8, aqueous suspension of spray-dried dispersion of Example 4 (part B), 100 mg/kg/day", "result": 36.18, "unit": "µg·h/mL"},
      {"measurement": "half-life", "setting": "[1]; [9]", "result": 354, "unit": "min"},
      {"measurement": "Cmax", "setting": "[1]; [9]", "result": 730, "unit": "ng/mL"},
      {"measurement": "Tmax", "setting": "[1]; [9]", "result": 2.3, "unit": "h"},
      {"measurement": "AUC", "setting": "[1]; both sexes, Sprague-Dawley, plasma, po, 10 mg/kg/day, 10 mg/kg/day oral, Day 1, aqueous suspension of spray-dried dispersion of Example 4 (part B), read-out: AUC", "result": 9.2, "unit": "µg·h/mL"},
      {"measurement": "half-life", "setting": "[1]; [10]", "result": 324, "unit": "min"},
      {"measurement": "Cmax", "setting": "[1]; [10]", "result": 600, "unit": "ng/mL"},
      {"measurement": "Tmax", "setting": "[1]; [10]", "result": 3.3, "unit": "h"},
      {"measurement": "AUC", "setting": "[1]; both sexes, Sprague-Dawley, plasma, po, 10 mg/kg/day, 10 mg/kg/day oral, Day 8, aqueous suspension of spray-dried dispersion of Example 4 (part B), read-out: AUC", "result": 7.3, "unit": "µg·h/mL"},
      {"measurement": "half-life", "setting": "[1]; [11]", "result": 468, "unit": "min"},
      {"measurement": "Cmax", "setting": "[1]; [11]", "result": 1390, "unit": "ng/mL"},
      {"measurement": "Tmax", "setting": "[1]; [11]", "result": 3, "unit": "h"},
      {"measurement": "AUC", "setting": "[1]; both sexes, Sprague-Dawley, plasma, po, 30 mg/kg/day, 30 mg/kg/day oral, Day 1, aqueous suspension of spray-dried dispersion of Example 4 (part B), read-out: AUC", "result": 22.2, "unit": "µg·h/mL"},
      {"measurement": "half-life", "setting": "[1]; [12]", "result": 318, "unit": "min"},
      {"measurement": "Cmax", "setting": "[1]; [12]", "result": 1320, "unit": "ng/mL"},
      {"measurement": "Tmax", "setting": "[1]; [12]", "result": 3.3, "unit": "h"},
      {"measurement": "AUC", "setting": "[1]; both sexes, Sprague-Dawley, plasma, po, 30 mg/kg/day, 30 mg/kg/day oral, Day 8, aqueous suspension of spray-dried dispersion of Example 4 (part B), read-out: AUC", "result": 15, "unit": "µg·h/mL"},
      {"measurement": "half-life", "setting": "[1]; [13]", "result": 378, "unit": "min"},
      {"measurement": "Cmax", "setting": "[1]; [13]", "result": 2130, "unit": "ng/mL"},
      {"measurement": "Tmax", "setting": "[1]; [13]", "result": 5, "unit": "h"},
      {"measurement": "AUC", "setting": "[1]; both sexes, Sprague-Dawley, plasma, po, 100 mg/kg/day, 100 mg/kg/day oral, Day 1, aqueous suspension of spray-dried dispersion of Example 4 (part B), read-out: AUC", "result": 32.6, "unit": "µg·h/mL"},
      {"measurement": "half-life", "setting": "[1]; [14]", "result": 336, "unit": "min"},
      {"measurement": "Cmax", "setting": "[1]; [14]", "result": 2610, "unit": "ng/mL"},
      {"measurement": "Tmax", "setting": "[1]; [14]", "result": 4.5, "unit": "h"},
      {"measurement": "AUC", "setting": "[1]; both sexes, Sprague-Dawley, plasma, po, 100 mg/kg/day, 100 mg/kg/day oral, Day 8, aqueous suspension of spray-dried dispersion of Example 4 (part B), read-out: AUC", "result": 36.2, "unit": "µg·h/mL"},
      {"measurement": "pharmacokinetics (Cmax and AUC) versus dose", "setting": "[2]", "result": "dose proportional exposures"}
    ]}
  ]
}
